Laboratory results published in patent publication US10030064B2, “Mammalian cell culture processes for protein production” (priority 2009, dated 2018).

Key:
Type in all cases: cell-based, Chinese hamster
CHO cells [1] = experiment: Fed-batch 5-L bioreactor CHO culture: sialic acid content and N-linked sialylated species fraction; conditions: 1 μM DEX bolus addition
Description: Bioreactor experiments were performed in 5-L bioreactors (Sartorius AG, Goettingen, Germany) with initial working volumes of 1.5 L. Agitation, pH, and dissolved oxygen were controlled at 150 rpm, 7.05, and 50% air saturation, respectively. Temperature was initially controlled at 37° C., but was shifted to a lower temperature during the culture to extend culture viability. The bioreactors were operated in fed-batch mode and were fed daily starting on day 3 with the proprietary feed medium to maintain adequate concentrations for glucose and other nutrients. Samples were taken during the cell culture process and analyzed for cell density, cell viability, substrates and metabolites.
(§1) The sialic acid to recombinant protein molar ratio was calculated by determining the sialic acid and recombinant protein concentrations. Sialic acid (SA), including N-Acetylneuraminic (Neu5Ac) and N-glycolylneuraminic acid (Neu5Gc), was released by partial acid hydrolysis. The derivatives were then separated by reversed-phase HPLC to determine sialic acid content. The protein concentrations were determined by UV absorbance at 280 nm. Sialic acid content is reported as molar ratios, which is the total moles of Neu5Ac and Neu5Gc per mole of recombinant glycoprotein. Sialic acid contents are reported as normalized values, which are the actual values divided by an arbitrary value. The same divisor was used to normalize all sialic acid content data in the studies reported here.
(§2) High-pH anion-exchange chromatography with pulsed amperometric detection (HPAEC-PAD) was used for the profiling of N-linked oligosaccharides (Base and Spellman 1990; Townsend and Hardy 1991) to provide information on site-specific N-linked glycosylation. N-linked oligosaccharides were cleaved from protein and separated on HPAEC-PAD into four domains based on the amount of sialic acid present. Domain I represents the asialo species. Domains II, III, and IV are sialylated species and represent monosialylated, disialylated, and tri- and tetrasialylated species, respectively. N-linked sialylated species fraction is reported as the percentage of N-linked sialylated species within the total N-linked oligosaccharides species, which includes both asialo and sialylated species. N-linked sialylated species fractions are reported as normalized values, which are the actual values divided by an arbitrary value. The same divisor was used to normalize all N-linked sialylated species fraction data in the studies reported here.
The bioreactors were operated as described in the methods section.

CHO cells [2] = experiment: Shake flask CHO culture: cell viability profile (Example 1); conditions: 1 μM DEX from day 2
Description: (§3) The experiments were carried out in 250-mL shake flasks (VWR international) with starting volumes of 100 mL and initial cell densities of 6×10^5 cells/mL. The cultures were placed on a shaker platform (VWR international) at 150 rpm and maintained at 37° C. and 6% CO2 for ten days. The cultures were sampled daily and the pH was adjusted as needed using 1M sodium carbonate and fed with glucose and glutamine every two days in order to maintain them at adequate levels. Cell density and viability were measured offline using a Cedex automated cell counter (Innovatis AG, Bielefeld, Germany). Culture pH and concentrations for glucose and glutamine were measured off-line using a Bioprofile Analyzer 400 (Nova Biomedical Corporation, Waltham, Mass.).

sialidase = experiment: Sialidase activity in culture supernatant (Amplex Red Neuraminidase assay); conditions: 1 μM DEX from day 2, absorbance at 560 nm
Description: Sialidase activity was analyzed using the Amplex Red Neuraminidase (Sialidase) Assay Kit (Invitrogen, Carlsbad, Calif.). Briefly, neuraminidase in the sample is used to desialylate fetuin. This assay utilizes Amplex Red to detect H2O2 generated by oxidation of the desialylated galactose residues on the fetuin by galactose oxidase. The H2O2, in the presence of HRP, reacts stoichiometrically with Amplex Red reagent to generate the red-fluorescent oxidation product, resorufin 5, which is then analyzed either fluorometrically or spectrophotometrically. In each assay, 50 μL of working solution (100 μM Amplex Red, 0.2 U/mL HRP, 4 U/mL galactose oxidase and 500 μg/mL fetuin) was added into each microplate well containing 50 μL of diluted cell culture supernatant. After 30 minutes incubation at 37° C., samples were analyzed for absorbance at 560 nm using a microplate reader.
As shown in FIG. 2A and FIG. 2B, increased sialidase activity was associated with the decreased cell viabilities in both the DEX-treated and untreated cultures.

[3] = tested on: CHO DG44 cell line expressing the fusion glycoprotein; experiment: Shake flask CHO culture: total sialic acid content, N-linked and O-linked oligosaccharide profile of the secreted fusion glycoprotein
Description: The CHO cell line used in this study was originally subcloned from DG44 parental cells and cultured in a proprietary protein-free growth medium.
as §3, §1, §2
O-linked glycosylation was characterized by intact mass analysis of a reference standard and Protein-A purified samples of the fusion protein (Reference). Samples were diluted in 100 mM Tris, 25 mM NaCl, pH 7.6 and incubated with PNGase F overnight to enzymatically remove all N-linked oligosaccharides. Samples were then injected for intact mass analysis after mixing with an internal standard of insulin. O-linked sialic acid content is reported as molar ratios, which is the moles of O-linked sialic acid per mole of recombinant glycoprotein.
This study was performed in duplicate 250-mL shake flasks using the culture conditions as described above. […] Cultures were harvested on day 10, and the fusion protein was purified using a protein A column and analyzed for total sialic acid content, O-linked sialic acid content and the N-linked profile.

[4] = 0.1 μM DEX, with 1 μM RU-486 added 24 hours before DEX
[5] = DEX 0.01 μM added day 2, harvest day 10
[6] = DEX 0.1 μM added day 2, harvest day 10
[7] = DEX 1.0 μM added day 2, harvest day 10
[8] = DEX 10 μM added day 2, harvest day 10

In the case of C[C@@H]1C[C@H]2[C@@H]3CCC4=CC(=O)C=C[C@]4(C)[C@@]3(F)[C@@H](O)C[C@]2(C)[C@@]1(O)C(=O)CO [DEX, dexamethasone], the “change of sialylated fraction between days 8 to 14” value (CHO cells [1]) is reported as −7.7%, the “change of total sialic acid content between days 8 to 14” value (CHO cells [1]) is reported as −7.8% and the “normalized N-linked sialylated species fraction” value (CHO cells [1]; day 8) is reported as 97.7±0.9. For the same compound, the “normalized total sialic acid content” value (CHO cells [1]; day 8) was 17.9±0.1, the “increase of N-linked sialylated species fraction vs control” value (CHO cells [1]; day 14) was 15.8% and the “increase of total sialic acid content vs control” value (CHO cells [1]; day 14) was 16.2%. The “normalized N-linked sialylated species fraction” value (CHO cells [1]; day 14) was 90.2±1.3, the “normalized total sialic acid content” value (CHO cells [1]; day 14) was 16.5±0.1 and the Cell viability (CHO cells [2]; day 4) was 98.0±0.1%. The Cell viability (CHO cells [2]; day 10) was 85.0±2.7%, the “absorbance measurement of sialidase activity” value (sialidase; day 4) was 0.006±0.002 and the “absorbance measurement of sialidase activity” value (sialidase; day 10) was 0.024±0.003. For the same compound, the “normalized N-linked sialylated species fraction” value [3, 4] was 81.5±0.8, the “normalized total sialic acid content” value [3, 4] was 12.7±0.1 and the “normalized N-linked sialylated species fraction” value ([3]; 0.1 μM DEX, without RU-486) was 92.2±2.0. For the same compound, the “Percent increase of N-link asialo-” value [3, 5] was −8.6%, the “Percent increase of N-link-Di-” value [3, 5] was 13.9% and the “Percent increase of N-link-Mono-” value [3, 5] was 6.6%. The “Percent increase of N-link-Tri and tetra-” value [3, 5] was 4.5%, the “Percent increase of O-link SA” value [3, 5] was 0.0% and the “Percent increase of SA” value ([3]; DEX 0.01 μM added day 2, harvest day 10, vs control) was 9.3%. The “Percent increase of N-link asialo-” value [3, 6] was −9.6%, the “Percent increase of N-link-Di-” value [3, 6] was 13.9% and the “Percent increase of N-link-Mono-” value [3, 6] was 7.3%. The “Percent increase of N-link-Tri and tetra-” value [3, 6] was 13.6%, the “Percent increase of O-link SA” value [3, 6] was 0.5% and the “Percent increase of SA” value ([3]; DEX 0.1 μM added day 2, harvest day 10, vs control) was 13.0%. For the same compound, the “Percent increase of N-link asialo-” value [3, 7] was −10.0%, the “Percent increase of N-link-Di-” value [3, 7] was 19.4% and the “Percent increase of N-link-Mono-” value [3, 7] was 4.3%. The “Percent increase of O-link SA” value [3, 7] was 0.9%, the “Percent increase of SA” value ([3]; DEX 1.0 μM added day 2, harvest day 10, vs control) was 13.0% and the “Percent increase of N-link asialo-” value [3, 8] was −15.6%. For the same compound, the “Percent increase of N-link-Di-” value [3, 8] was 24.3%, the “Percent increase of N-link-Mono-” value [3, 8] was 7.3% and the “Percent increase of N-link-Tri and tetra-” value [3, 8] was 20.5%. For the same compound, the “Percent increase of O-link SA” value [3, 8] was 0.0% and the “Percent increase of SA” value ([3]; DEX 10 μM added day 2, harvest day 10, vs control) was 20.4%.
